From US20080280303A1, “G-PROTEIN COUPLED RECEPTORS HIGH-[…]” (priority 2003, published 2008)

What was measured:
Format in all cases: cell-based
EPAC = molecular target: T1, EPAC (Homo sapiens, UniProt O95398); assay: R-SAT proliferation, EPAC co-expressed with ras/rapAA, with or without 8-Br cAMP; settings: 250 uM 8-Br cAMP; ras/rapAA 20 ng per well
T1 construct: expressed in transfected cells; host or cells: NIH 3T3
T1 sequence (O95398 1-923): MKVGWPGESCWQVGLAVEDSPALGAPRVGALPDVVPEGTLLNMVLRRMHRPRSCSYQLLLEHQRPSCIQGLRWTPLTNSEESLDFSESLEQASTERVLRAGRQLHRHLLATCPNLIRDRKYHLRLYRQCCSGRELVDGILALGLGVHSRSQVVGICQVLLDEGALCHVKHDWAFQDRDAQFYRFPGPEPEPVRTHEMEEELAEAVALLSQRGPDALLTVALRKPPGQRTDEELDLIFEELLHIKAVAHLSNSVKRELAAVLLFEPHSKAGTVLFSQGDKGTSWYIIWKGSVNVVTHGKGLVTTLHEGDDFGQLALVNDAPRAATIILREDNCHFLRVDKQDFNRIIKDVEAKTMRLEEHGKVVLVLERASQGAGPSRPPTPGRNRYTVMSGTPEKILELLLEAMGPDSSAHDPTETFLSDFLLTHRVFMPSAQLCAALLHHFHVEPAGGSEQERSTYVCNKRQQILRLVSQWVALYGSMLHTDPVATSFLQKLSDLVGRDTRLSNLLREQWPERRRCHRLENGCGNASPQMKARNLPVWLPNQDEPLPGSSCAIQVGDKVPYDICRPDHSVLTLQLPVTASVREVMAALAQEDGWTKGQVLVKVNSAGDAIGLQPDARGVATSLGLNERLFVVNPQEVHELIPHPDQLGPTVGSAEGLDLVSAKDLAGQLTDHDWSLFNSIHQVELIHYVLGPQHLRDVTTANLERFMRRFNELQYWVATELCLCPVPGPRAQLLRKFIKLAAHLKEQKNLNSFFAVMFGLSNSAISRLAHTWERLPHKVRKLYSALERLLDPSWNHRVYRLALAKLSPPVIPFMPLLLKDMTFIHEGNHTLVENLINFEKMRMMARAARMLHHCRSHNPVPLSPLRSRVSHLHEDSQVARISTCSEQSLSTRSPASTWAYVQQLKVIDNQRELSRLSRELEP
Method: FIG. 2. Characterization of regulation and signaling properties of ras/rap chimeras. A) Proliferative responses of ras, rap, and ras/rap measured in R-SAT. 4 ng/well each of wild-type or GTPase deficient (V 12) mutants of ras, rap1A, or ras/rap1A (24) were transfected and analyzed for proliferative responses as described in Methods. B & C) Rap-selective exchange factors activate cellular proliferation in a ras/rap chimera dependent manner. B) Synergy of EPAC with ras/rap chimeras. Two ng per well of the rap selective exchange factor EPAC was co-expressed with 20 ng per well of either rap1B, ras/rap1A, ras/rap1B, ras/rapAA, or control vector and analyzed for proliferative responses as described above. C) Synergy of C3G with ras/rap chimeras. Twenty ng per well of the rap selective exchange factor C3G (68) was co-expressed with 20 ng per well of either rap1B, ras/rap1A, ras/rap1B, ras/rapAA, or control vector and analyzed for proliferative responses as described above. D) The indicated doses (ng per well) of EPAC were co-expressed with 20 ng per well of ras/rapAA in the presence or absence of 250 uM 8-Br cAMP and analyzed for proliferative responses as described above. […] Either 10 ng per well of control vector, ras or ras/rapAA was co-expressed with EPAC (2 ng per well), C3G (10 ng per well), or Sos2 (10 ng per well) and analyzed for proliferative responses. […]

D1 dopamine receptor = molecular target: T2, D1 dopamine receptor (Homo sapiens, UniProt P21728); assay: R-SAT cellular proliferation, D1 co-expressed with ras/rapAA, with or without pertussis toxin; settings: 100 ug/ml pertussis toxin; agonist SKF81297; NIH 3T3 cells
T2 construct: expressed in transfected cells; host or cells: NIH 3T3
Method: (§1) FIG. 4. Pertussis toxin sensitivity of ras/rap dependent proliferative responses to Gs-coupled and Gi-coupled GPCRs. A) D1 (4 ng per well) and ras/rapAA (20 ng per well) were co-expressed and analyzed for proliferative responses in the presence or absence of 100 ug/ml pertussis toxin in the presence of the indicated concentrations of SKF81297. B) 5HT1E (20 ng per well) and ras/rapAA (20 ng per well) were co-expressed and analyzed for proliferative responses in the presence or absence of 100 ug/ml pertussis toxin in the presence of the indicated concentrations of BRL54443. C) D2 (4 ng/well), alpha2C (20 ng/well), and SST5 (4 ng/well) were each expressed with ras/rapAA (20 ng/well), incubated with the indicated concentrations of ligand and either with or without 100 ng/ml pertussis toxin (PTX) and analyzed for proliferative responses as described above. Control represents the receptors expressed alone.
(§2) Functional assays. […] After five days in culture β-galactosidase levels were measured essentially as described (35). […] After 3 hr the plates were read at 420 nm on a plate-reader (Bio-Tek EL 310 or Molecular Devices). […]

5HT1E serotonin receptor = molecular target: T3, 5HT1E serotonin receptor (Homo sapiens, UniProt P28566); assay: R-SAT cellular proliferation, 5HT1E co-expressed with ras/rapAA, with or without pertussis toxin; settings: 100 ug/ml pertussis toxin; agonist BRL54443; NIH 3T3 cells
T3 construct: expressed in transfected cells; host or cells: NIH 3T3
Method: as §1, §2

GPR12 = molecular target: T4, GPR12 (Homo sapiens, UniProt P47775); assay: R-SAT constitutive proliferation, orphan receptor with ras/rapAA and ACII, with or without pertussis toxin; settings: PTX, 100 ng/ml
T4 construct: expressed in transfected cells
T4 sequence (P47775 1-334): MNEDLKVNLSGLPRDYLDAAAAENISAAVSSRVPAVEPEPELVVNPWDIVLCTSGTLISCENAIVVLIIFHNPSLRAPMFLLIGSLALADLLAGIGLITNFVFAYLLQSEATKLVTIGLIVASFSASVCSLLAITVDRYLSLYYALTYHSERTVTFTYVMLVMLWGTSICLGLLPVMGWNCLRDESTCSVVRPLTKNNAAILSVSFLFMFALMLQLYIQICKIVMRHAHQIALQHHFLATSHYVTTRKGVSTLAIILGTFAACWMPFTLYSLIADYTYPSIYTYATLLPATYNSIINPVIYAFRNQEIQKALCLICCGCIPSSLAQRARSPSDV
Method: (§3) FIG. 7. Functional validation and characterization of orphan GPCRs using helper genes. A) The indicated receptors were expressed at two doses either alone, with ras/rapAA (20 ng/well) and ACII (2 ng/well), or Gαq (4 ng/well) and analyzed for constitutive stimulation of cellular proliferation as described above. Control represents the transfection of the same helper genes with vector substituting for receptor. The transfections were all balanced with vector to ensure the same total amount of DNA was transfected in each case. PI hydrolysis assays were carried out using tsa cells transfected with 20 ng/well of each receptor as described in Methods. B) The indicated receptors were expressed at two doses either alone, with ras/rapAA (20 ng/well) and ACII (2 ng/well), or Gαq (4 ng/well) and analyzed for constitutive stimulation of cellular proliferation as described above. Control represents the transfection of the same helper genes with vector substituting for receptor. The transfections were all balanced with vector to ensure the same total amount of DNA was transfected in each case. Cyclic AMP accumulation assays were carried out using HEK293 cells transfected with 20 ng/well of each receptor as described in Methods. C) The indicated receptors were expressed at with ras/rapAA (20 ng/well) and ACII (2 ng/well), incubated in the presence or absence of pertussis toxin (PTX, 100 ng/ml) and analyzed for constitutive stimulation of cellular proliferation as described above. Control represents the transfection of the same helper genes with vector substituting for receptor. D) The indicated receptors were tested for stimulation of cyclic AMP production as described in the experimental methods.
as §2

GPR3 = molecular target: T5, GPR3 (Homo sapiens, UniProt P46089); assay: as above; settings: PTX, 100 ng/ml
T5 construct: expressed in transfected cells
Method: as §3, §2

GPR6 = molecular target: T6, GPR6 (Homo sapiens, UniProt P46095); assay: as above; settings: PTX, 100 ng/ml
T6 construct: expressed in transfected cells
Method: as §3, §2

T6 sequence (P46095 whole entry, species assumed): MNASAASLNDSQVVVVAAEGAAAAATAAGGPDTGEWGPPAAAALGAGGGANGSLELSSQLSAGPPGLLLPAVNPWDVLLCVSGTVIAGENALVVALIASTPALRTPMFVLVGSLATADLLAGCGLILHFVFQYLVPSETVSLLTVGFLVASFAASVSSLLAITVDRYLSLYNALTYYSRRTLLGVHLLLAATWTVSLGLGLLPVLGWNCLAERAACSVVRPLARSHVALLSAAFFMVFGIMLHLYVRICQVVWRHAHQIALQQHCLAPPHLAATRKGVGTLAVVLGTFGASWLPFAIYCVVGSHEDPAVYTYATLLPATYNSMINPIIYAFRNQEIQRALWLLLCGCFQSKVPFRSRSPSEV
T5 sequence (P46089 whole entry, species assumed): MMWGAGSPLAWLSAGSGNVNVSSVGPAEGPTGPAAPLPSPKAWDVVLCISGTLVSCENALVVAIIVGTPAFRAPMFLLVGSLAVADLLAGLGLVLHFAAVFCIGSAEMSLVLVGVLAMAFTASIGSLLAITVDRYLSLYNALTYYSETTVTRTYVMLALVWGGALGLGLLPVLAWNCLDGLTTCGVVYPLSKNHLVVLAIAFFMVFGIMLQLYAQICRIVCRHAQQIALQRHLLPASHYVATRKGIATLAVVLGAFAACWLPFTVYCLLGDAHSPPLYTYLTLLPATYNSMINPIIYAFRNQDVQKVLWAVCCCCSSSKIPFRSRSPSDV
T3 sequence (P28566 whole entry): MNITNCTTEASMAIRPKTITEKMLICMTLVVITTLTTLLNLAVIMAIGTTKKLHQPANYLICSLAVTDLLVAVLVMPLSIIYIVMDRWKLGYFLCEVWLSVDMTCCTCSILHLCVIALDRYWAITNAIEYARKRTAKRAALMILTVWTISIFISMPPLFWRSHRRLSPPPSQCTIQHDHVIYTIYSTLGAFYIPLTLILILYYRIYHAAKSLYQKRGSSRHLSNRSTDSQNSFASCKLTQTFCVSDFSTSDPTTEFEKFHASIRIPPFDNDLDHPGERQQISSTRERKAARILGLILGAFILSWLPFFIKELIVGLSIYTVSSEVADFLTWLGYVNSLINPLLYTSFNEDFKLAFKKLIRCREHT
T2 sequence (P21728 whole entry): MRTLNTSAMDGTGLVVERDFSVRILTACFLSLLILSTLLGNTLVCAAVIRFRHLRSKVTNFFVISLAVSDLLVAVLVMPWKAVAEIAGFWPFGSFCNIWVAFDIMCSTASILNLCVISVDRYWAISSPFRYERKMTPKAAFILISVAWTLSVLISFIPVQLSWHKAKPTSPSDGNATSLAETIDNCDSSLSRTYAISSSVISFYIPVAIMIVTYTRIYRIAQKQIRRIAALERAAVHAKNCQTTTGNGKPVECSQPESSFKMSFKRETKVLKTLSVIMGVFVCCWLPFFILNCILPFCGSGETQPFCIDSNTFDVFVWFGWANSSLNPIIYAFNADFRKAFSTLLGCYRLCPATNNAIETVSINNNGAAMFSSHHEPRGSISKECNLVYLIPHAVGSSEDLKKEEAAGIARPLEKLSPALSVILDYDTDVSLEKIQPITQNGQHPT

| Molecule | stimulation of EPAC to induce ras/rap-dependent responses (EPAC) | effect on ras/rap dependent responses to D1 (D1 dopamine receptor) | effect on ras/rap dependent responses to 5HT1E (5HT1E serotonin receptor) | effect on helper gene dependent constitutive response to GPR12 (GPR12) | effect on helper gene dependent constitutive response to GPR3 (GPR3) | effect on helper gene dependent constitutive response to GPR6 (GPR6) |
| --- | --- | --- | --- | --- | --- | --- |
| Nc1ncnc2c1nc(Br)n2[C@@H]1O[C@@H]2COP(=O)(O)O[C@H]2[C@H]1O [8-Br cAMP] | stimulated | – | – | – | – | – |
| pertussis toxin | – | did not block, and slightly increased | completely blocked | hardly affected | hardly affected | significantly blunted |
